In patent US20070043024A1, “Azacyclic compounds as inhibitors of sensory neurone specific channels” (priority 2003, published 2007):
Like-named read-outs stand apart in the source and are kept apart here.

Biological target: T1, human Nav1.8 (hNav1.8) ion channel (Homo sapiens, UniProt Q9Y5Y9)
T1 construct: expressed in transfected cells
Assay: Inhibition of human Nav1.8 stably expressed in SH-SY-5Y cells (membrane potential dye fluorescence assay)
Type: cell-based
Details: SH-SY-5Y hNav1.8 cells, inhibition of membrane depolarisation, FLIPR membrane potential dye, 250 nM TTX, test concentration range 100 μM-0.05 μM, read-out: IC50

[1] = Table 2 (compound numbers of the list in the description)

T1 sequence (Q9Y5Y9 whole entry): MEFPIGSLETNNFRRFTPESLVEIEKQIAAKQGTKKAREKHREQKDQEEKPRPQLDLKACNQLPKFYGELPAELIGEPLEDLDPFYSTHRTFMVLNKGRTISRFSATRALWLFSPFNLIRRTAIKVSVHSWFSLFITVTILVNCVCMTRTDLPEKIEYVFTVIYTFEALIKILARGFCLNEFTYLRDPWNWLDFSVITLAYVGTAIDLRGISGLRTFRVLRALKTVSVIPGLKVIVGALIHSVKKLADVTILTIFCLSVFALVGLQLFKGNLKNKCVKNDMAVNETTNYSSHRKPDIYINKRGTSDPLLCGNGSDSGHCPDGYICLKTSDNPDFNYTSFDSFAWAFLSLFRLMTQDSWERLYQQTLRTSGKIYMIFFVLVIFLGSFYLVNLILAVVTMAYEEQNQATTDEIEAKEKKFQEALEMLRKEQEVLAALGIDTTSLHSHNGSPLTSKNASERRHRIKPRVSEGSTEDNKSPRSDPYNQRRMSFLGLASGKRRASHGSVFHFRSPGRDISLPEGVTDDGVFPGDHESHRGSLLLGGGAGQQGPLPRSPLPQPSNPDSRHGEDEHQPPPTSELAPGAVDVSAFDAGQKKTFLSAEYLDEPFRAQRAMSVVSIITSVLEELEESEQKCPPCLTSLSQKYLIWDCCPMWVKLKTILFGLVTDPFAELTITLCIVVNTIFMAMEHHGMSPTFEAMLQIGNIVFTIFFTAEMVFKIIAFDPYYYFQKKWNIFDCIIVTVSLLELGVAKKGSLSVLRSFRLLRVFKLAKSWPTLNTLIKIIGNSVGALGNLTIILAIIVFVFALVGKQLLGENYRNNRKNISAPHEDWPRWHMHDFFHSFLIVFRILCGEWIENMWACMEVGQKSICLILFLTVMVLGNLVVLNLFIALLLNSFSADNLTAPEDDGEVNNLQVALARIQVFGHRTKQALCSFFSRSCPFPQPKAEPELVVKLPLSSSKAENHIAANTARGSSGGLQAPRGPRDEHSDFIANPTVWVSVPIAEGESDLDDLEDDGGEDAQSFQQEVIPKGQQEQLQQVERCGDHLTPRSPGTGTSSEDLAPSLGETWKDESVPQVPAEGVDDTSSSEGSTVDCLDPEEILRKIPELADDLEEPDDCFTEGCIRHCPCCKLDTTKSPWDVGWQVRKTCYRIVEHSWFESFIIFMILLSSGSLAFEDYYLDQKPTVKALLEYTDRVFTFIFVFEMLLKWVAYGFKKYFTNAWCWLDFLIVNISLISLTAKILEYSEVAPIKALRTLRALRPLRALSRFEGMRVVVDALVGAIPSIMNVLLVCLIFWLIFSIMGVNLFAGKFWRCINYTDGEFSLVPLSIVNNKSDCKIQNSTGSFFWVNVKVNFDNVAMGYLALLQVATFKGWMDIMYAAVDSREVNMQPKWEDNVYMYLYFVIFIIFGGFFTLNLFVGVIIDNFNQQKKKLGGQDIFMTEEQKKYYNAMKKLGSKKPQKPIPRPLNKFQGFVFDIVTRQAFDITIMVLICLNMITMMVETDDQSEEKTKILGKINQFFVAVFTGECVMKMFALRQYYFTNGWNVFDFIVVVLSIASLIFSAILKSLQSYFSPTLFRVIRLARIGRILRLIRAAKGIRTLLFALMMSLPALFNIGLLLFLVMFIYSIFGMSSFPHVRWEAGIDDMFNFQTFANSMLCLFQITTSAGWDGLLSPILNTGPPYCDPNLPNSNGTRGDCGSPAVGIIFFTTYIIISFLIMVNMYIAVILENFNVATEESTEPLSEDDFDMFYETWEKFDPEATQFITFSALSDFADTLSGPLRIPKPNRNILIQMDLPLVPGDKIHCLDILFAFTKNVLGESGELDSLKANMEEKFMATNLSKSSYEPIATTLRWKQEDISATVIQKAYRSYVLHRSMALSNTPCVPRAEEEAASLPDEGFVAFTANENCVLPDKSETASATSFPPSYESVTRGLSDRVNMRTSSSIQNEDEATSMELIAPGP

Row | Compound | IC50 [1] [nM] | IC50 (Table 1) [nM]
1 | COc1cccc2c1CN(CCC(=O)NCCC(c1ccc(F)cc1)c1ccc(F)cc1)CC2 [Compound 166, N-[3,3-Bis-(4-fluoro-phenyl)-propyl]-3-(8-methoxy-3,4-dihydro-1H-isoquinolin-2-yl)-propionamide] | 350 | –
2 | O=C(CNC(c1ccccc1)c1ccccc1)N1Cc2ccccc2C1 [Compound 107, 2-(Benzhydryl-amino)-1-(1,3-dihydro-isoindol-2-yl)-ethanone] | 2260 | –
3 | CC(=O)Nc1ccc(C(CCNC(=O)CN2CCc3ccccc3C2)c2ccccc2)cc1NC(C)=O (centres unmarked) [Compound 116, N-[3-(3,4-Bis-acetylamino-phenyl)-3-phenyl-propyl]-2-(3,4-dihydro-1H-isoquinolin-2-yl)-acetamide] | 22200 | –
4 | COc1cccc2c1CN(CC(c1ccccc1)c1ccccc1)CC2 [Example 13, 2-(2,2-Diphenyl-ethyl)-8-methoxy-1,2,3,4-tetrahydro-isoquinoline] | – | 1390
5 | O=C(CN1CCc2cccc(O)c2C1)NC(c1ccccc1)c1ccccc1 [Example 24, N-Benzhydryl-2-(8-hydroxy-3,4-dihydro-1H-isoquinolin-2-yl)-acetamide] | – | 1510
6 | COc1cc2c(cc1OC)CN(CC(=O)N1c3ccccc3[S+]([O-])c3ccccc31)CC2 [Compound 157, 2-(6,7-Dimethoxy-3,4-dihydro-1H-isoquinolin-2-yl)-1-(5-oxo-5H-5lambda*4*-phenothiazin-10-yl)-ethanone] | 30000 | –
7 | CS(=O)(=O)Oc1cccc2c1CN(CC(=O)N1c3ccccc3Oc3ccccc31)C2 [Compound 203, Methanesulfonic acid 2-(2-oxo-2-phenoxazin-10-yl-ethyl)-2,3-dihydro-1H-isoindol-4-yl ester] | 1110 | –
8 | CS(=O)(=O)Oc1cccc2c1CN(CC(=O)N1c3ccccc3Oc3ccccc31)CC2 [Compound 191, Methanesulfonic acid 2-(2-oxo-2-phenoxazin-10-yl-ethyl)-1,2,3,4-tetrahydro-isoquinolin-8-yl ester] | 1270 | –
9 | COc1cccc2c1CN(CC(=O)NC1c3ccccc3Oc3ccccc31)CC2 [Compound 180, 2-(8-Methoxy-3,4-dihydro-1H-isoquinolin-2-yl)-N-(9H-xanthen-9-yl)-acetamide] | 5190 | –
10 | Nc1cccc2c1CCN(CCC(=O)NCCC(c1ccccc1)c1ccccc1)C2 [Compound 122, 3-(5-Amino-3,4-dihydro-1H-isoquinolin-2-yl)-N-(3,3-diphenyl-propyl)-propionamide] | 960 | –
11 | CSc1ccc2c(c1)N(C(=O)CN1CCc3cccc(O)c3C1)c1ccccc1S2 [Compound 158, 2-(8-Hydroxy-3,4-dihydro-1H-isoquinolin-2-yl)-1-(2-methylsulfanyl-phenothiazin-10-yl)-ethanone] | 4590 | –
12 | CS(=O)(=O)Nc1cccc2c1CN(CC(=O)N1c3ccccc3Oc3ccccc31)C2 [Compound 210, N-[2-(2-Oxo-2-phenoxazin-10-yl-ethyl)-2,3-dihydro-1H-isoindol-4-yl]-methanesulfonamide] | 3460 | –
13 | CS(=O)(=O)Nc1cccc2c1CN(CC(=O)N1c3ccccc3Oc3ccccc31)CC2 [Compound 198, N-[2-(2-Oxo-2-phenoxazin-10-yl-ethyl)-1,2,3,4-tetrahydro-isoquinolin-8-yl]-methanesulfonamide] | 1830 | –
14 | COc1cccc2c1CN(CC(=O)N1c3ccccc3OCC1c1ccccc1)CC2 (centres unmarked) [Compound 71, 2-(8-methoxy-3,4-dihydro-1H-isoquinolin-2-yl)-1-(3-phenyl-2,3-dihydro-benzo[1,4]oxazin-4-yl)-ethanone] | 2180 | –
15 | COc1cccc2c1CN(C(C)C(=O)N1c3ccccc3Oc3ccccc31)C2 (centres unmarked) [Compound 217, 2-(4-Methoxy-1,3-dihydro-isoindol-2-yl)-1-phenoxazin-10-yl-propan-1-one] | 1960 | –
16 | O=C(CN1Cc2ccccc2C1)N1CCN(C(c2ccccc2)c2ccccc2)CC1 [Example 67, 1-(4-Benzhydryl-piperazin-1-yl)-2-(1,3-dihydro-isoindol-2-yl)-ethanone] | – | 2350

Row | Compound | IC50 [1] [nM] | IC50 (Table 1) [nM]
17 | COc1cccc2c1CN(CC(=O)NC(c1ccccc1)c1ccccc1)CC2 [Example 19, N-Benzhydryl-2-(8-methoxy-3,4-dihydro-1H-isoquinolin-2-yl)-acetamide] | – | 730
18 | COc1ccc2c(c1)CCCN(C(=S)NC(c1ccccc1)c1ccccc1)C2 [Compound 76, 7-methoxy-1,3,4,5-tetrahydro-benzo[c]azepine-2-carbothioic acid benzhydryl-amide] | 14800 | –
19 | COc1cccc2c1CN(CCNC(=S)NCC(c1ccccc1)c1ccccc1)CC2 [Compound 137, 1-(2,2-Diphenyl-ethyl)-3-[2-(8-methoxy-3,4-dihydro-1H-isoquinolin-2-yl)-ethyl]-thiourea] | 440 | –
20 | O=C(CN1CCc2ccccc2C1)NCC(c1ccccc1)c1ccccc1 [Example 60, 2-(3,4-Dihydro-1H-isoquinolin-2-yl)-N-(2,2-diphenyl-ethyl)-acetamide] | – | 950
21 | O=C(CNC(c1ccccc1)c1ccccc1)N1CCc2ccccc2C1 [Example 31, 2-(Benzhydryl-amino)-1-(3,4-dihydro-1H-isoquinolin-2-yl)-ethanone] | – | 1850
22 | CCOc1cccc2c1CN(CC(=O)N(Cc1ccccc1)Cc1ccccc1)CC2 [Compound 91, N,N-Dibenzyl-2-(8-ethoxy-3,4-dihydro-1H-isoquinolin-2-yl)-acetamide] | 6980 | –
23 | COc1cccc2c1CN(CC(=O)NCCCOC(c1ccccc1)c1ccccc1)CC2 [Compound 94, N-(3-Benzhydryloxy-propyl)-2-(8-methoxy-3,4-dihydro-1H-isoquinolin-2-yl)-acetamide] | 2840 | –
24 | Nc1cccc2c1CN(CC(=O)NCC(c1ccccc1)c1ccccc1)C2 [Compound 98, 2-(4-Amino-1,3-dihydro-isoindol-2-yl)-N-(2,2-diphenyl-ethyl)-acetamide] | 6760 | –
25 | Nc1cccc2c1CN(CCCC(c1ccc(F)cc1)c1ccc(F)cc1)CC2 [Compound 110, 2-[4,4-Bis-(4-fluoro-phenyl)-butyl]-1,2,3,4-tetrahydro-isoquinolin-8-ylamine] | 480 | –
26 | O=C(CN(CCC(c1ccccc1)c1ccccc1)CC(=O)N1CCc2ccccc2C1)N1CCc2ccccc2C1 [Example 33, 1-(3,4-Dihydro-1H-isoquinolin-2-yl)-2-[[2-(3,4-dihydro-1H-isoquinolin-2-yl)-2-oxo-ethyl]-(3,3-diphenyl-propyl)-amino]-ethanone] | – | 860
27 | COc1cccc2c1CN(CC(=O)N(c1ccccc1)c1ccccc1)CC2 [Compound 150, 2-(8-Methoxy-3,4-dihydro-1H-isoquinolin-2-yl)-N,N-diphenyl-acetamide] | 1790 | –
28 | COc1ccc(C2COc3ccccc3N2C(=O)CN2CCc3cccc(OC)c3C2)cc1OC (centres unmarked) [Compound 216, 1-[3-(3,4-Dimethoxy-phenyl)-2,3-dihydro-benzo[1,4]oxazin-4-yl]-2-(8-methoxy-3,4-dihydro-1H-isoquinolin-2-yl)-ethanone] | 4310 | –
29 | O=C(CN1Cc2ccccc2C1)NC(c1ccccc1)c1ccccc1 [Example 41, N-Benzhydryl-2-(1,3-dihydro-isoindol-2-yl)-acetamide] | – | 7020
30 | O=C(CN1CCc2ccc(O)cc2C1)N1c2ccccc2Oc2ccccc21 [Compound 193, 2-(7-Hydroxy-3,4-dihydro-1H-isoquinolin-2-yl)-1-phenoxazin-10-yl-ethanone] | 3170 | –
31 | COc1cccc2c1CN(CC(=O)NCCCC(c1ccccc1)c1ccccc1)CC2 [Compound 81, N-(4,4-diphenyl-butyl)-2-(8-methoxy-3,4-dihydro-1H-isoquinolin-2-yl)-acetamide] | 1400 | –
32 | COc1cccc2c1CN(CC(=O)NNC(=O)N(c1ccccc1)c1ccccc1)CC2 [Compound 186, 1-[(8-Methoxy-3,4-dihydro-1H-isoquinolin-2-yl)-acetyl]-4,4-diphenylsemicarbazide] | 29100 | –
